Data: ChEMBL document CHEMBL5506015, “Discovery of a Meisoindigo-Derived PROTAC as the ATM Degrader: Revolutionizing Colorectal Cancer Therapy via Synthetic Lethality with ATR Inhibitors” (J Med Chem, 2024)
Active and inactive are the calls of the source. The rule behind the calls is not given here.

How the values were obtained:
K562 [1] = assay: Downregulation of ATM level in human K562 cells at 20 uM by immunoblot analysis; format: functional, cell-based; settings: time <= 24.0 hrs, TDE = time-dependent effect
SW-620 [2] = assay: Antitumor activity against human SW620 cells xenografted in Balb/c nude mouse model assessed as decrease in pro caspase 3 level at 15 mg/kg/day measured after 14 days by Western blot analysis; format: functional, organism-based; settings: time 14.0 day
SW-620 [3] = assay: Upregulation of cleaved caspase 3 level in human SW620 cells at 1.25 to 10 uM measured after 12 hrs by immunoblot analysis; format: functional, cell-based; settings: dose 1.25-10 µM
RKO = assay: Cytotoxicity against human RKO cells assessed as reduction in cell viability incubated for 48 hrs by MTT assay
K562 [4] = assay: Downregulation of ATM level in human K562 cells measured after 8 hrs by immunoblot analysis; format: functional, cell-based; settings: dose 5-20 µM
SW-620 [5] = assay: Downregulation of PROX1 level in human SW620 cells measured after 12 hrs by immunoblot analysis; format: functional, cell-based; settings: dose 1.25-10 µM
SW480 [6] = assay: Induction of apoptosis in human SW480 cells measured after 12 hrs by Annexin V-FITC/propidium iodide staining-based flow cytometric analysis; format: functional, cell-based; settings: dose 5-10 µM
HCT-116 [7] = assay: Cytotoxicity against human HCT-116 cells transfected with NC shRNA assessed as reduction in cell viability measured after 48 hrs by MTT assay; settings: HCT-116, 48 h
K562 [8] = assay: Cytotoxicity against human K562 cells assessed as reduction in cell viability incubated for 48 hrs by MTT assay; settings: K562, 48 h
SW480 [9] = assay: Downregulation of BCL2 level in human SW480 cells at 1.25 to 10 uM measured after 12 hrs by immunoblot analysis; format: functional, cell-based; settings: dose 1.25-10 µM
SW-620 [10] = assay: Potentiation of AZD6738 induced DNA damage in human SW620 cells assessed as gamma-H2AX accumulation in nuclei at 5 uM incubated for 12 hrs by immunohistochemical staining based analysis; format: functional, cell-based
SW-620 [11] = assay: Induction of DNA damage in human SW620 cells assessed as gamma-H2AX accumulation incubated for 12 hrs by immunoblot analysis; format: functional, cell-based; settings: dose 2.5-10 µM
SW-620 [12] = assay: Antitumor activity against human SW620 cells xenografted in Balb/c nude mouse model assessed as necrosis at 15 mg/kg/day measured after 14 days by H and E staining based analysis; format: functional, organism-based; settings: time 14.0 day
SW480 [13] = assay: Potentiation of AZD6738 induced DNA damage in human SW480 cells assessed as gamma-H2AX accumulation in nuclei at 5 uM incubated for 12 hrs by immunohistochemical staining based analysis; format: functional, cell-based
LoVo = assay: Cytotoxicity against human LoVo cells assessed as reduction in cell viability incubated for 48 hrs by MTT assay
[14] = Toxicity in Balb/c nude mouse assessed as drug tolerance at 15 mg/kg/day administered for 14 days in presence of AZD6738; format: organism-based; settings: in vivo, 336 h, time 14 day
SW-620 [15] = assay: Antitumor activity against human SW620 cells xenografted in Balb/c nude mouse model assessed as decrease in BCL2 protein level at 15 mg/kg/day measured after 14 days by Western blot analysis; format: functional, organism-based; settings: time 14.0 day
HCT-116 [16] = assay: Cytotoxicity against human HCT-116 cells assessed as reduction in cell viability incubated for 48 hrs by MTT assay; settings: HCT-116, 48 h
COLO 205 = assay: Cytotoxicity against human COLO 205 cells assessed as reduction in cell viability incubated for 48 hrs by MTT assay; settings: COLO 205, 48 h
SW-620 [17] = assay: Induction of DNA damage in human SW620 cells assessed as accumulation of phosphorylated-chk2 (Thr68) measured after 12 hrs by immunoblot analysis; format: functional, cell-based; settings: dose 2.5-10 µM
SW-620 [18] = assay: Induction of DNA damage in human SW620 cells assessed as gamma-H2AX accumulation at 10 uM by immunoblot analysis; format: functional, cell-based; settings: time <= 24.0 hrs, TDE = time-dependent effect
SW480 [19] = assay: Cytotoxicity against human SW480 cells transfected with NC shRNA assessed as reduction in cell viability measured after 48 hrs by MTT assay; settings: SW480, 48 h
[20] = Downregulation of ATM level in human HCT-116 cells transfected with ATM shRNA by immunoblot analysis; format: functional
SW480 [21] = assay: Upregulation of cleaved caspase 3 level in human SW480 cells at 1.25 to 10 uM measured after 12 hrs by immunoblot analysis; format: functional, cell-based; settings: dose 1.25-10 µM
K562 [22] = assay: Potentiation of AZD6738 induced DNA damage in human K562 cells assessed as gamma-H2AX accumulation in nuclei at 5 uM incubated for 12 hrs by immunohistochemical staining based analysis; format: functional, cell-based
SW-620 [23] = assay: Cytotoxicity against human SW620 cells transfected with NC shRNA assessed as reduction in cell viability measured after 48 hrs by MTT assay; settings: SW-620, 48 h
SW-620 [24] = assay: Induction of DNA damage in human SW620 cells assessed as accumulation of phosphorylated-chk2 (Thr68) at 10 uM by immunoblot analysis; format: functional, cell-based; settings: time <= 24.0 hrs, TDE = time-dependent effect
SW13 = assay: Cytotoxicity against human SW13 cells assessed as reduction in cell viability incubated for 48 hrs by MTT assay; settings: SW13, 48 h
SW-620 [25] = assay: Antitumor activity against human SW620 cells xenografted in Balb/c nude mouse model assessed as decrease in ATM protein level at 15 mg/kg/day measured after 14 days by Western blot analysis; format: functional, organism-based; settings: time 14.0 day
[26] = Toxicity in Balb/c nude mouse assessed as drug tolerance at 15 mg/kg/day administered for 14 days; format: organism-based; settings: in vivo, 336 h, time 14 day
SW-620 [27] = assay: Antitumor activity against human SW620 cells xenografted in Balb/c nude mouse model assessed as increase in cleaved-caspase 3 level at 15 mg/kg/day measured after 14 days by Western blot analysis; format: functional, organism-based; settings: time 14.0 day
K562 [28] = assay: Induction of DNA damage in human K562 cells assessed as gamma-H2AX accumulation at 20 uM by immunoblot analysis; format: functional, cell-based; settings: time <= 12.0 hrs, TDE = time-dependent effect
SW-620 [29] = assay: Cytotoxicity against human SW620 cells assessed as reduction in cell viability incubated for 48 hrs by MTT assay; settings: SW-620, 48 h
SW-620 [30] = assay: Downregulation of KDM4B level in human SW620 cells at 10 uM measured after 12 hrs in presence of tert-butyl ((S)-1-((2S,4R)-4-hydroxy-2-((4-(4-methylthiazol-5-yl)benzyl)carbamoyl)pyrrolidin-1-yl)-3,3-dimethyl-1-oxobutan-2-yl)carbamate by immunoblot analysis; format: functional, cell-based
K562 [31] = assay: Induction of DNA damage in human K562 cells assessed as gamma-H2AX accumulation at 20 uM incubated for 8 hrs by immunoblot analysis; format: functional, cell-based
[32] = Downregulation of ATM level in human SW620 cells transfected with ATM shRNA by immunoblot analysis; format: functional, SW-620
[33] = Toxicity in Balb/c nude mouse assessed as effect on body weight loss at 15 mg/kg/day administered for 14 days in presence of AZD6738 […]; format: organism-based; settings: in vivo, 336 h, time 14 day
A2780 = assay: Cytotoxicity against human A2780 cells assessed as reduction in cell viability incubated for 48 hrs by MTT assay; settings: A2780, 48 h
SW-620 [34] = assay: Induction of apoptosis in human SW620 cells measured after 12 hrs by Annexin V-FITC/propidium iodide staining-based flow cytometric analysis; format: functional, cell-based; settings: dose 5-10 µM
SW-620 [35] = assay: Antitumor activity against human SW620 cells xenografted in Balb/c nude mouse model assessed as inflammatory cell infiltration at 15 mg/kg/day measured after 14 days by H and E staining based analysis; format: functional, organism-based; settings: time 14.0 day

## Cc1ncsc1-c1ccc(CNC(=O)[C@@H]2C[C@@H](O)CN2C(=O)[C@@H](NC(=O)CCCCCn2cc(CCCN3C(=O)/C(=C4/C(=O)Nc5ccccc54)c4ccccc43)nn2)C(C)(C)C)cc1
K562 [1]
  Activity: Tde
SW-620 [2]
  Activity: Active
SW-620 [3]
  Activity: Active
RKO
  IC50: 3.95 µM
K562 [4]
  Activity: Dose-Dependent Effect
SW-620 [5]
  Activity: Dose-Dependent Effect
SW480 [6]
  Activity: Dose-Dependent Effect
HCT-116 [7]
  IC50: 5.82 µM
K562 [8]
  IC50: 4.06 µM
SW480 [9]
  Activity: Active
SW-620 [10]
  Activity: Active
SW-620 [11]
  Activity: Dose-Dependent Effect
SW-620 [12]
  Activity: Active
SW480 [13]
  Activity: Active
LoVo
  IC50: 6.73 µM
[14]
  Activity: Non-Toxic
SW-620 [15]
  Activity: Active
HCT-116 [16]
  IC50: 5.82 µM
COLO 205
  IC50: 5.11 µM
SW-620 [17]
  Activity: Dose-Dependent Effect
SW-620 [18]
  Activity: Tde
SW480 [19]
  IC50: 2.59 µM
[20]
  Activity: 15%
SW480 [21]
  Activity: Active
K562 [22]
  Activity: Active
SW-620 [23]
  IC50: 3.7 µM
SW-620 [24]
  Activity: Tde
SW13
  IC50: 3.31 µM
SW-620 [25]
  Activity: Active
[26]
  Activity: Non-Toxic
SW-620 [27]
  Activity: Active
K562 [28]
  Activity: Tde
SW-620 [29]
  IC50: 3.7 µM
SW-620 [30]
  Activity: Active
K562 [31]
  Activity: Active
[32]
  Activity: 25%
[33]
  Activity: Non-Toxic
A2780
  IC50: 3.96 µM
SW-620 [34]
  Activity: Dose-Dependent Effect
SW-620 [35]
  Activity: Active
